Measurements from ChEMBL document CHEMBL1133756, “A potent aldose reductase inhibitor, (2S,4S)-6-fluoro-2', 5'-dioxospiro[chroman-4,4'-imidazolidine]-2-carboxamide (Fidarestat): its absolute configuration and interactions with the aldose reductase by X-ray crystallography” (J Med Chem, 2000).

Experiments:
[1] = target: Aldo-keto reductase family 1 member B1 (Rattus norvegicus, UniProt P07943); assay: Tested for in vitro inhibition activity against rat Aldose reductase (AR)
[2] = target: Aldo-keto reductase family 1 member B1 (Homo sapiens, UniProt P15121); assay: Tested for in vitro inhibition activity against human Aldose reductase (human AR)
[3] = target: T1, Aldo-keto reductase family 1 member A1 (Homo sapiens, UniProt P14550); assay: Tested for in vitro inhibition activity against human aldehyde reductase (AHR)
T1 sequence (P14550 whole entry): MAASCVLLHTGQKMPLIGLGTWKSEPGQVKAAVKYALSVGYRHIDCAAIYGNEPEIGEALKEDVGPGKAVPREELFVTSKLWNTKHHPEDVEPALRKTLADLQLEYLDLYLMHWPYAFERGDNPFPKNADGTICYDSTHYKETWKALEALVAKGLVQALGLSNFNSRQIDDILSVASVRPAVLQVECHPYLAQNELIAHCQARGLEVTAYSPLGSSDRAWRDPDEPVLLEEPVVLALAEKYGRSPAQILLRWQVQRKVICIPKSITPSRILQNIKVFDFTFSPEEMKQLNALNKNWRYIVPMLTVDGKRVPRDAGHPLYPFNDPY

Row | IC50 [1] [nM] | IC50 [2] [nM] | IC50 [3] [nM] | Compound
1 | 570 | – | – | NC(=O)[C@H]1C[C@]2(NC(=O)NC2=O)c2cc(F)ccc2O1
2 | 35 | 9 | 1200 | NC(=O)[C@@H]1C[C@]2(NC(=O)NC2=O)c2cc(F)ccc2O1
